The record followed here is US20250197372A1 (priority 2020, published 2025).

What all share (assay type): biochemical
The target in experiment [1] is T1, recombinant alpha-glucosidase I (human full-length glucosidase I, Glu 1) (Homo sapiens, UniProt Q13724).
T1 construct: 6-His (C); made in house; host or cells: HEK-293T cells transduced with BacMam virus (virus raised in Sf9)
T1 sequence (Q13724 1-837): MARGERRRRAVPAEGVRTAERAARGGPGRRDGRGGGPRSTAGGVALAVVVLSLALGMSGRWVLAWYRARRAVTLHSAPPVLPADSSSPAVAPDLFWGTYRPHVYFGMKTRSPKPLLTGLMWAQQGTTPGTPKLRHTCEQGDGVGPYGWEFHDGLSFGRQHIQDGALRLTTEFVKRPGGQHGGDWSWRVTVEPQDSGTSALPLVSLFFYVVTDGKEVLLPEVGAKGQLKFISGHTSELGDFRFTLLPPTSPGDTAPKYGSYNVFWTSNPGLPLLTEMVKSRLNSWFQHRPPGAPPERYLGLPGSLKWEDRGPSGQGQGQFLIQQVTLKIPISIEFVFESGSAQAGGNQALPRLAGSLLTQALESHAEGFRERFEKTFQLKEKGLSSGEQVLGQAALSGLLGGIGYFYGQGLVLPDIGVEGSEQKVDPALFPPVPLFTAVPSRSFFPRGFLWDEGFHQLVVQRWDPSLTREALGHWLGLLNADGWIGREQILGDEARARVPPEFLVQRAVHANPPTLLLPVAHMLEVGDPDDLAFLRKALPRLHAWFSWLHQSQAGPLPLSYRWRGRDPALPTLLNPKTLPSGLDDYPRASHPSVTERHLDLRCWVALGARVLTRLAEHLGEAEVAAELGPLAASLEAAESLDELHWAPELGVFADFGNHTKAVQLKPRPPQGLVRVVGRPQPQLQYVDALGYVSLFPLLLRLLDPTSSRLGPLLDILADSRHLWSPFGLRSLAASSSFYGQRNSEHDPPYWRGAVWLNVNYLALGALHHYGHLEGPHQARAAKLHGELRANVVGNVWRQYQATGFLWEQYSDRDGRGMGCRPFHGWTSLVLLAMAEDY
Kind of experiment: Alpha-glucosidase I assay (Amplex Red glucose detection, synthetic trisaccharide substrate). The settings on record: Glucosidase 1; read-out: Glu 1 IC50. In a few lines: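 Compound dilution series incubated 60 min at 37° C with recombinant His-tagged human glucosidase I ([…]), after which trisaccharide substrate analog was added for 90 min at 37° C. Reaction quenched with 1.5M Tris pH 8; D-glucose detected by Amplex Red fluorescence, 560/590 nm. 4-PL curve fit of percent inhibition gave IC50.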

Experiment [2] deals with T2, recombinant alpha-glucosidase II (murine full-length glucosidase II, alpha and beta subunits, Glu 2) (Mus musculus, UniProt Q8BHN3).
T2 construct: made in house; host or cells: HEK-293T cells transduced with BacMam viruses (75% alpha, 25% beta); protein harvested from culture supernatant
Kind of experiment: Alpha-glucosidase II assay (4-methylumbelliferyl-alpha-D-pyranoside substrate, fluorescence). The settings on record: Glucosidase 2; read-out: Glu2 IC50.

Experiment [3] concerns the target recombinant human GAA (acid alpha-glucosidase) (Homo sapiens, UniProt P10253). The experiment in a line: Acid alpha-glucosidase (GAA) assay (4-methylumbelliferyl-alpha-D-pyranoside substrate, fluorescence). In a few lines:
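IC50 from 4-PL curve fit of percent inhibition, based on fluorescence (365/440 nm) of released methylumbelliferone relative to uninhibited enzyme. Compound dilutions and human GAA incubated 60 min, 37 °C, before 20 min substrate reaction at 37 °C, quenched at pH 10.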

T2 sequence (O08795 15-521): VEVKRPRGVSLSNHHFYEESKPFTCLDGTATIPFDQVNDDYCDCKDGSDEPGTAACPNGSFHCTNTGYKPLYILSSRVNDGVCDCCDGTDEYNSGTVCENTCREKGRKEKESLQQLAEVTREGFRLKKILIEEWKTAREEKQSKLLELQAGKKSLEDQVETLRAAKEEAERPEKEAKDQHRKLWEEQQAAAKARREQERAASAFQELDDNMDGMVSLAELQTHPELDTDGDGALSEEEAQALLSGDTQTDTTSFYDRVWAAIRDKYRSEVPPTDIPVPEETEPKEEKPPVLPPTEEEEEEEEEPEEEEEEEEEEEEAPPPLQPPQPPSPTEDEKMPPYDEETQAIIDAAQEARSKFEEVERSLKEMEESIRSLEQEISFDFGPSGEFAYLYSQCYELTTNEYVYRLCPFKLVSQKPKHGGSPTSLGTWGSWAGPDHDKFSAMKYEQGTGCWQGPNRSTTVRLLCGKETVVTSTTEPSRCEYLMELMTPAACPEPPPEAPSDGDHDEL
T2 sequence (Q8BHN3 33-944): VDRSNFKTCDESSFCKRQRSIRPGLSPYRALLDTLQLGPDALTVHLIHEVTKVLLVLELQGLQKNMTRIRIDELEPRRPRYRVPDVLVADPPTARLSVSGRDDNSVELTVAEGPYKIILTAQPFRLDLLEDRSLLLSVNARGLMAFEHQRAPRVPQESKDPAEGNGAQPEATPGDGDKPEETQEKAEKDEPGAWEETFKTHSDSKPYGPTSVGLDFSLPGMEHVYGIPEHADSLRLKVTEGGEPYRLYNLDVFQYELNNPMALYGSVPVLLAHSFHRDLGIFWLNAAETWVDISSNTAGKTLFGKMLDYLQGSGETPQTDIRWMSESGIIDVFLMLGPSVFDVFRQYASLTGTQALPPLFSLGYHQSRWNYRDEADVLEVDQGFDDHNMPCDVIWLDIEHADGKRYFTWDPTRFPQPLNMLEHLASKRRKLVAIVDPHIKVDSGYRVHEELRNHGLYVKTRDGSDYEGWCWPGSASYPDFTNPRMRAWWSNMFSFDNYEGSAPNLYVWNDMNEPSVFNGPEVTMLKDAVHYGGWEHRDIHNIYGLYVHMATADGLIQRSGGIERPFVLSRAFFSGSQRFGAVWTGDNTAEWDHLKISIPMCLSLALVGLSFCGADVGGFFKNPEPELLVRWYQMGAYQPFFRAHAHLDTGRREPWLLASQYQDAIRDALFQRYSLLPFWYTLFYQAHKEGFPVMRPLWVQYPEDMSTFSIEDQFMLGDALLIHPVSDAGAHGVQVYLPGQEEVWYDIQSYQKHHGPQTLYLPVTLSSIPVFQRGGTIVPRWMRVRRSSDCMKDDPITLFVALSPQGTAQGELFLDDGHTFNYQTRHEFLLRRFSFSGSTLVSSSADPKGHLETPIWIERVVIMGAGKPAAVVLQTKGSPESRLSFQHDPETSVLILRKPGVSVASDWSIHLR

For orientation: IC50 means the concentration at which inhibition is half-maximal. Regarding `O=[N+]([O-])c1cc(C2=COCCO2)ccc1NCc1cccc(CN2C[C@H](O)[C@@H](O)[C@H](O)[C@H]2CO)c1` [Compound 1087, (2R,3R,4R,5S)-1-{[3-({[4-(5,6-dihydro-1,4-dioxin-2-yl)-2-nitro-phenyl]amino}methyl)phenyl]methyl}-2-(hydroxymethyl)piperidine-3,4,5-triol], the figures for the IC50 in experiment [1], in experiment [2] and in experiment [3] were < 1 nM, 8110 nM and 554 nM, respectively.
Regarding `O=[N+]([O-])c1cc(-c2cccnn2)ccc1NCc1cccc(CN2C[C@H](O)[C@@H](O)[C@H](O)[C@H]2CO)c1` [Compound 1089, (2R,3R,4R,5S)-2-(hydroxymethyl)-1-{[3-({[2-nitro-4-(pyridazin-3-yl)phenyl]amino}methyl)phenyl]methyl}piperidine-3,4,5-triol], the IC50 was 26 nM in experiment [1], 20700 nM in experiment [2] and 572 nM in experiment [3].
Consider `O=[N+]([O-])c1cc(-c2ccc[nH]2)ccc1NCc1ccc(CN2C[C@H](O)[C@@H](O)[C@H](O)[C@H]2CO)cc1` [Compound 1100, (2R,3R,4R,5S)-2-(hydroxymethyl)-1-{[4-({[2-nitro-4-(1H-pyrrol-2-yl)phenyl]amino}methyl)phenyl]methyl}piperidine-3,4,5-triol], for which the IC50 was < 1 nM in experiment [1], < 1 nM in experiment [2] and 161 nM in experiment [3].
For `O=[N+]([O-])c1cc(C2=COCCO2)ccc1NCc1ccc(CN2C[C@H](O)[C@@H](O)[C@H](O)[C@H]2CO)cc1` [Compound 1099, (2R,3R,4R,5S)-1-{[4-({[4-(5,6-dihydro-1,4-dioxin-2-yl)-2-nitrophenyl]amino}methyl)phenyl]methyl}-2-(hydroxymethyl)piperidine-3,4,5-triol], the IC50 in experiment [1], in experiment [2] and in experiment [3] was < 1 nM throughout.
Consider `Cc1cc(CN2CCOCC2)cc(NCc2ccc(CN3C[C@H](O)[C@@H](O)[C@H](O)[C@H]3CO)cc2)c1` [Compound 1005, (2R,3R,4R,5S)-2-(hydroxymethyl)-1-({4-[({3-methyl-5-[(morpholin-4-yl)methyl]phenyl}amino)methyl]phenyl}methyl)piperidine-3,4,5-triol], for which the IC50 came to 404 nM in experiment [1], 1580 nM in experiment [2] and 802 nM in experiment [3].
On to `Cc1cc(NCc2ccc(CN3C[C@H](O)[C@@H](O)[C@H](O)[C@H]3CO)cc2)cc(N2CCOCC2)c1` [Compound 1048, (2R,3R,4R,5S)-2-(hydroxymethyl)-1-{[4-({[3-methyl-5-(morpholin-4-yl)phenyl]amino}methyl)phenyl]methyl}piperidine-3,4,5-triol], for which the IC50 in experiment [1] was determined as 145 nM; in experiment [2], 550 nM; in experiment [3], 366 nM.
Turning to `OC[C@@H]1[C@@H](O)[C@H](O)[C@@H](O)CN1Cc1ccc(CNc2ccc(C3=COCCO3)cc2)cc1` [Compound 1093, (2R,3R,4R,5S)-1-{[4-({[4-(5,6-dihydro-1,4-dioxin-2-yl)phenyl]amino}methyl)phenyl]methyl}-2-(hydroxymethyl)piperidine-3,4,5-triol], the IC50 in experiment [1] is 12 nM; in experiment [2], 1040 nM; in experiment [3], 108 nM.
The like results for `OC[C@@H]1[C@@H](O)[C@H](O)[C@@H](O)CN1Cc1cccc(CNc2ccc(C3=COCCO3)cc2)c1` [Compound 1066, (2R,3R,4R,5S)-1-{[3-({[4-(5,6-dihydro-1,4-dioxin-2-yl)phenyl]amino}methyl)phenyl]methyl}-2-(hydroxymethyl)piperidine-3,4,5-triol] were, in that order, 69 nM, 3360 nM and 1060 nM.
For `Cc1cc(CN2CCOCC2)cc(NCCCCCCN2C[C@H](O)[C@@H](O)[C@H](O)[C@H]2CO)c1` [Compound 1003, (2R,3R,4R,5S)-2-(hydroxymethyl)-1-[6-({3-methyl-5-[(morpholin-4-yl)methyl]phenyl}amino)hexyl]piperidine-3,4,5-triol], the IC50 came to 366 nM in experiment [1], 2 nM in experiment [2] and 299 nM in experiment [3].
The matching figures for `O=[N+]([O-])c1cc(-c2cccnn2)ccc1NCCc1ccc(CCN2C[C@H](O)[C@@H](O)[C@H](O)[C@H]2CO)cc1` [Compound 1109, (2R,3R,4R,5S)-2-(hydroxymethyl)-1-{2-[4-(2-{[2-nitro-4-(pyridazin-3-yl)phenyl]amino}ethyl)phenyl]ethyl}piperidine-3,4,5-triol]: 6 nM, < 1 nM and 3 nM.
On to `CN(Cc1ccc(CN2C[C@H](O)[C@@H](O)[C@H](O)[C@H]2CO)cc1)c1cc(-c2cccnn2)cc(C2CC2)c1` [Compound 1001, (2R,3R,4R,5S)-1-{[4-({[3-cyclopropyl-5-(pyridazin-3-yl)phenyl](methyl)amino}methyl)phenyl]methyl}-2-(hydroxymethyl)piperidine-3,4,5-triol], for which the 50% inhibitory concentration (IC50) in experiment [1] stood at 13 nM; in experiment [2], 437 nM; in experiment [3], 91 nM.
For `O=[N+]([O-])c1cc(-c2ncccn2)ccc1NCc1cccc(CN2C[C@H](O)[C@@H](O)[C@H](O)[C@H]2CO)c1` [Compound 1090, (2R,3R,4R,5S)-2-(hydroxymethyl)-1-{[3-({[2-nitro-4-(pyrimidin-2-yl)phenyl]amino}methyl)phenyl]methyl}piperidine-3,4,5-triol], the IC50 in experiment [1] came to 7 nM; in experiment [2], 13800 nM; in experiment [3] it was 509 nM.
With `O=[N+]([O-])c1cc(-c2ncccn2)ccc1NCCc1ccc(CCN2C[C@H](O)[C@@H](O)[C@H](O)[C@H]2CO)cc1` [Compound 1111, (2R,3R,4R,5S)-2-(hydroxymethyl)-1-{2-[4-(2-{[2-nitro-4-(pyrimidin-2-yl)phenyl]amino}ethyl)phenyl]ethyl}piperidine-3,4,5-triol], the half-inhibitory concentration (IC50) in experiment [1] was 68 nM; in experiment [2], 10 nM; in experiment [3], 20 nM.
As to `O=[N+]([O-])c1cc(CN2CCCO2)ccc1NCCc1ccc(CCN2C[C@H](O)[C@@H](O)[C@H](O)[C@H]2CO)cc1` [Compound 1108, (2R,3R,4R,5S)-2-(hydroxymethyl)-1-(2-{4-[2-({2-nitro-4-[(1,2-oxazolidin-2-yl)methyl]phenyl}amino)ethyl]phenyl}ethyl)piperidine-3,4,5-triol], the IC50 in experiment [1] came out at 247 nM; in experiment [2], 7 nM; in experiment [3] it was 311 nM.
`N#Cc1cc(NCc2cccc(CN3C[C@H](O)[C@@H](O)[C@H](O)[C@H]3CO)c2)cc(-c2ncccn2)c1` [Compound 1047, 3-(pyrimidin-2-yl)-5-{[(3-{[(2R,3R,4R,5S)-3,4,5-trihydroxy-2-(hydroxymethyl)piperidin-1-yl]methyl}phenyl)methyl]amino}benzonitrile]: the results for the half-maximal inhibitory concentration (IC50) in experiment [1], in experiment [2] and in experiment [3] were 13 nM, 12900 nM and 1470 nM, respectively.
In the case of `N#Cc1cc(NCc2cccc(CN3C[C@H](O)[C@@H](O)[C@H](O)[C@H]3CO)c2)cc(-c2cccnn2)c1` [Compound 1046, 3-(pyridazin-3-yl)-5-{[(3-{[(2R,3R,4R,5S)-3,4,5-trihydroxy-2-(hydroxymethyl)piperidin-1-yl]methyl}phenyl)methyl]amino}benzonitrile], the half-maximal inhibitory concentration (IC50) in experiment [1] is 17 nM; in experiment [2], 18000 nM; in experiment [3], 1630 nM.
For `OC[C@@H]1[C@@H](O)[C@H](O)[C@@H](O)CN1Cc1cccc(CNc2ccc(-c3ccc[nH]3)cc2)c1` [Compound 1082, (2R,3R,4R,5S)-2-(hydroxymethyl)-1-{[3-({[4-(1H-pyrrol-2-yl)phenyl]amino}methyl)phenyl]methyl}piperidine-3,4,5-triol], the IC50 amounted to 69 nM in experiment [1], 5630 nM in experiment [2] and 872 nM in experiment [3].
For `COc1cc(Br)cc(NCCn2cc(CCN3C[C@H](O)[C@@H](O)[C@H](O)[C@H]3CO)c3ccccc32)c1` [Compound 1075, (2R,3R,4R,5S)-1-[2-(1-{2-[(3-bromo-5-methoxyphenyl)amino]ethyl}-1H-indol-3-yl)ethyl]-2-(hydroxymethyl)piperidine-3,4,5-triol], the IC50 turned out to be 1920 nM in experiment [1], 150 nM in experiment [2] and 3730 nM in experiment [3].
